The source of these data is patent US20230055441A1 (NONO INC., priority 2020, published 2023).

“Also recorded” adds a separate entry of the source. Square brackets hold non-standard residues; d marks the D form. Ends that are not written are not given here. Peptide text beside a SMILES is read from it.

For data set [1], the target named is T1, PSD95PDZ2 (Homo sapiens, UniProt P78352). Kind of data set: competitive ELISA, PSD95PDZ2 coated, competitor biotinylated NA-1.
Target sequence in this assay (P78352 160-246 limits assumed): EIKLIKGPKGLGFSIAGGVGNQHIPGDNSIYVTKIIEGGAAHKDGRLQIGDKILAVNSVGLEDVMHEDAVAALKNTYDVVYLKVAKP
In data set [2] the target is T1, PSD95PDZ2. Kind of data set: direct ELISA; biotinylated peptide.
Target sequence in this assay (P78352 160-246): as the sequence (P78352 160-246 limits assumed) above
The target in data set [3] is T1, PSD95PDZ2. Kind of data set: Competitive ELISA with biotinylated-NA-1 on coated PSD95PDZ2. It counts as binding. As for the experimental part:
Binding was evaluated with a competitive ELISA assay. A plate was coated with 1 ug/ml PSD95PDZ2 in 50 mM bicarbonate buffer overnight at 4C. The plate was blocked in 2% BSA in PBST (0.05%) for 2 h at room temperature. […] The wells were washed again, and then incubated with TMB solution for 10 min. The reaction was stopped with 100 ul H2SO4. Absorbance was determined at 450 nm with the synergy H1 reader.
Target sequence in this assay (P78352 160-246 limits assumed): as above

Data set [4] is described as follows: Pharmacokinetic analysis in rats by route (subcutaneous, pulmonary instillation, intramuscular, intravenous). To be noted: rat; for Cmax / plasma concentration, pulmonary instillation / plasma exposure, pulmonary instillation / AUC / plasma exposure, subcutaneous / Cmax, subcutaneous: 25 mg/kg (Table 4); for plasma exposure, pulmonary instillation: versus intrapulmonary NA-1; for AUC / plasma exposure, subcutaneous / Cmax, subcutaneous: NA-1 versus IV NA-1, others versus subcutaneous NA-1.
Method: Rats were anaesthetized in the supine position (Isoflurane 1.5-%) and allowed to breath spontaneously in 0.5 L/min 02. The left femoral artery was cannulated for blood sampling.
Test agents were prepared at the stablish concentration in a total volume of vehicle. Pulmonary instillation was performed by intubation with a 14G catheter connected to a 1 cc syringe and the test agent will be delivered through the catheter. Subcutaneous (SQ or SC) injection was injected into the area of the left flank, no more than 2 ml of total volume per site.
Each dose was evaluated in 3 rats for each administration strategy. […] For the first experiment, evaluating two different administration routes (SQ and PI), blood samples were collected at 8 different timepoints: Pre and at 7 additional times (1, 2.5, 5, 10, 15, 30, 60 min) post dose (250 ul/sample). For the 24-hour PK curve experiment, blood samples were collected at 11 timepoints: Pre, 2.5, 5, 10, 15, 30, 60 min, 3 hr, 6 hr, 12 hr and 24 hr.
HPLC quantification: Plasma was separated from blood and stored at −80° C. until used. Each sample was precipitated by adding 1M HCl (10 ul/100 ul sample) at >80° C., centrifuged (12,000 rpm×15 min) and the precipitate collected. A 5 cm C—18 RP-HPLC column was equilibrated with 10% acetonitrile with 0.1% TFA at 40° C., the sample was injected and run in an Agilent 1260 Infinity Quaternary LC System. (30 min at 1.5 mL/min; gradient from 10% to 35% acetonitrile in 0.1% TFA; Absorbance detected at 220 nm). Standard curves for HPLC were generated from plasma samples spiked with known quantities of test agent.

Another data set has as its system tPA. Kind of data set: tPA in PBS buffer (no plasma).
Data set [5] has as its system TNK-tissue plasminogen activator. Kind of data set: rat plasma with TNK.
Data set [6] has the same test system. Kind of data set: human plasma with TNK.
A short description of data set [7]: Plasma concentrations 15 minutes after subcutaneous dose in rats of the 3-pial vessel occlusion study. The format is in vivo. Conditions: rat. How it is done: Unlike transient models of stroke in rats where much lower doses are required for neuroprotection, neuroprotection in 3 pial vessel occlusion models of stroke seems to require plasma concentrations of nerinetide at or above 2 ug/mL (or molar equivalent). […] Although the plasma levels continue to increase through about 3 hours then decrease, it is important to achieve rapid accumulation in the blood and brain for emergency indications like stroke. […] For pharmacokinetic sample analysis, calibration standard samples at concentrations of 0, 2.5, 5, 10, 15, 20 and 40 ug/mL of nerinetide were prepared by spiking 1 μL of the appropriate stock to 100 μL of plasma. […] Data is presented as mean±SD.

Data set [8] can be described thus: Pharmacokinetics after subcutaneous injection in non-human primates. The format is in vivo, cynomolgus macaques. To be noted: for plasma concentrations: cynomolgus macaques. The source says:
All values are presented as mean±SD; Statistical significance when compared to nerinetide alone is indicated as * (one-way ANOVA with post-hoc turkey's correction, *P<0.01). (Cmax: maximum plasma concentrations based on the extrapolated time-zero value; t1/2: half-life at terminal phase; tmax: time to reach Cmax; AUC0-t: area under the concentration-time curve from 0 to the last measured value; AUC0-inf: extrapolated area under the concentration-time curve from 0 to infinity; Cl: total clearance). Data is presented as mean±SD of three-four animals per group. The (−) represent data not reported due to an extrapolation of the AUC0-inf greater than 20% and R^2 lower than 0.9.

In a further data set the test system is histamine. Put plainly: Histamine release in rat plasma (histamine ELISA).
A further data set has as its system plasmin. Kind of data set: digested with plasmin.
Another data set concerns TNK. Kind of data set: TNK in phosphate buffered saline alone.
The target in data set [9] is T1, PSD95PDZ2. Kind of data set: direct ELISA; biotinylated peptide; unit printed "um".
Target sequence in this assay (P78352 160-246): as the sequence (P78352 160-246 limits assumed) above
Where [10] appears, read: subcutaneous 25 mg/kg versus nerinetide IV infusion.
[11] abbreviates: listed as D-Tat-L-IESDV, 25 mg/kg.
Setting [12] is: subcutaneous 25, 8.3, 2.8 mg/kg.

Method for histamine: Blood samples were collected at 11 timepoints: Pre, 2.5, 5, 10, 15, 30, 60 min, 3 hr, 6 hr, 12 hr and 24 hr. Histamine levels were quantified by using commercially available histamine ELISA assay kit (Histamine ELISA-H1531-K01, Eagle Bioscience). The plates were coated with the plasma samples (50 ul/well) incubated for 60 minutes at room temperature on an orbital shaker with medium frequency. Then 100 ul of enzyme conjugate was added to the wells and incubated for 20 minutes at room temperature. Samples were washed again, and then incubated for 25 minutes at room temperature with TMB solution. The reaction was stopped with 100 ul H2SO4. Absorbance was determined on an ELISA plate reader at 450 nm.
Blood samples were taken at pre-injection and at 0, 1, 2.5, 5, 10, 15, 30- and 60-minutes post dose and used for histamine levels quantification using commercially available kit.

Take D-NA-1 (peptide): the fold difference of EC50 against NA-1 and D-Tat-L-2B9C with PSD95PDZ2 [1] was found to be 10 fold.
Take D-NA-1 NA1 (Bio-D-NA1): the EC50 with PSD95PDZ2 [2] turned out to be 1380 nM.
As for `CC[C@@H](C)[C@@H](NC(=O)[C@@H](CO)NC(=O)[C@@H](CO)NC(=O)[C@@H](CC(C)C)NC(=O)[C@@H](CCCCN)NC(=O)[C@@H](CCCNC(=N)N)NC(=O)[C@@H](CCCNC(=N)N)NC(=O)[C@@H](CCCNC(=N)N)NC(=O)[C@@H](CCC(N)=O)NC(=O)[C@@H](CCCNC(=N)N)NC(=O)[C@@H](CCCNC(=N)N)NC(=O)[C@@H](CCCCN)NC(=O)[C@@H](CCCCN)NC(=O)[C@@H](CCCNC(=N)N)NC(=O)CNC(=O)[C@H](N)Cc1ccc(O)cc1)C(=O)N[C@H](CCC(=O)O)C(=O)N[C@H](CO)C(=O)N[C@H](CC(=O)O)C(=O)N[C@@H](C(=O)O)C(C)C` [D-NA-1, ygrkkrrqrrrklssiesdv] (H-[dY]G[dR][dK][dK][dR][dR][dQ][dR][dR][dR][dK][dL][dS][dS][dI][dE][dS][dD][dV]-OH), the “EC50 compared among NA-1, D-Tat-L-2B9C and D-NA-1” value at PSD95PDZ2 [3] (FIG. 12) is “about ten-fold lower”. In data set [4], the “Cmax / plasma concentration, pulmonary instillation” value is recorded as “higher plasma concentration”; the “plasma exposure, pulmonary instillation” value is on record as “greater plasma exposure”; the “AUC / plasma exposure, subcutaneous” value was “also increased Cmax and AUC relative to subcutaneous NA-1 but not to the same extent”; the “Cmax, subcutaneous” value is “also increased Cmax and AUC relative to subcutaneous NA-1 but not to the same extent”.
Consider “ygrkkrrqrrrKLSSIESDV ([dY]G[dR][dK][dK][dR][dR][dQ][dR][dR][dR]KLSSIESDV)”, for which the not cleaved entry in the data set with tPA is on record as “no degradation”; in data set [5] it was “stable”; in [6], “stable”.
With `CC[C@H](C)[C@H](NC(=O)[C@@H](CO)NC(=O)[C@@H](CO)NC(=O)[C@@H](CC(C)C)NC(=O)[C@@H](CCCCN)NC(=O)[C@@H](CCCNC(=N)N)NC(=O)[C@@H](CCCNC(=N)N)NC(=O)[C@@H](CCCNC(=N)N)NC(=O)[C@@H](CCC(N)=O)NC(=O)[C@@H](CCCNC(=N)N)NC(=O)[C@@H](CCCNC(=N)N)NC(=O)[C@@H](CCCCN)NC(=O)[C@@H](CCCCN)NC(=O)[C@@H](CCCNC(=N)N)NC(=O)CNC(=O)[C@H](N)Cc1ccc(O)cc1)C(=O)N[C@@H](CCC(=O)O)C(=O)N[C@@H](CO)C(=O)N[C@@H](CC(=O)O)C(=O)N[C@H](C(=O)O)C(C)C` [NA-3, ygrkkrrqrrrklsslESDV] (H-[dY]G[dR][dK][dK][dR][dR][dQ][dR][dR][dR][dK][dL][dS][dS]IESDV-OH), on PSD95PDZ2 [3], the IC50 was less than 5000 nM. In addition, the “dose proportionality between treatment dose and Cmax” value in data set [7] (single subcutaneous administration 25, 7.6, 2.5 mg/kg) is reported as “dose proportionality”. Further, the stability in plasma result in data set [7] (subcutaneous, compared to nerinetide) is reported as “higher stability in plasma”. The “plasma concentration at 15 min post-dose” value in data set [7] (subcutaneous, compared to nerinetide at the same dose) was “higher concentration at 15 min post-dose”. Moreover, the plasma concentrations result in [8] (7.6 mg/Kg subcutaneous) and in [8] (25 mg/kg subcutaneous) was “able to achieve plasma concentrations higher than those demonstrated to be effective in humans” in each case. Moreover, in data set [8] (setting [10]), the AUC entry was “greater Cmax and AUC than nerinetide IV infusion”. For the same compound, the Cmax entry in [8] (setting [10]) was “greater Cmax and AUC than nerinetide IV infusion”. For the same compound, the histamine release entry with histamine (25 mg/kg SQ) was “resulted in histamine release but still much less than 7.6 mg/kg IV”; with histamine (subcutaneous 2.8 mg/kg), “Lack of significant histamine release”; in the data set with histamine (subcutaneous 2.8 mg/kg, listed as D-Tat-L-IESDV), “did not result in significant histamine release”; with histamine (subcutaneous 8.3 mg/kg), “Lack of significant histamine release”; in the data set with histamine (subcutaneous 8.3 mg/kg, listed as D-Tat-L-IESDV), “did not result in significant histamine release”. For the same compound, the “plasma exposure, pulmonary instillation” value in data set [4] is “greater plasma exposure”. Besides, the entries for the “Cmax / plasma concentration, pulmonary instillation” value in [4] (25 mg/kg) and in data set [4] (setting [11]) were “higher plasma concentration” and “higher CMax than for NA-1 or D-Tat-L-2B9C”, respectively. In [4] (setting [12]), the “dose dependence of AUC, subcutaneous” value is reported as “dose-dependent increasing linearly with dose”. Besides, the “dose dependence of Cmax, subcutaneous” value in [4] (setting [12]) is given as “dose-dependent increasing linearly with dose”. The “AUC / plasma exposure, subcutaneous” value in data set [4] (25 mg/kg) is “greater plasma exposure relative to SQ NA-1”; in data set [4] (setting [11]), “increased Cmax and AUC compared with subcutaneous NA-1”. The “Cmax, subcutaneous” value was “higher plasma concentration” in data set [4] (25 mg/kg); “increased Cmax and AUC compared with subcutaneous NA-1” in data set [4] (setting [11]).
As for YGRKKRRQRRRKLSSIESDV, in the data set with plasmin, the fragment found entry is listed as “RRQRRRKLSSIESDV; also recorded: RQRRRKLSSIESDV; also recorded: QRRRKLSSIESDV; also recorded: RRKLSSIESDV; also recorded: RKLSSIESDV; also recorded: KLSSIESDV; also recorded: LSSIESDV”. Further, the figures for the not cleaved result with tPA and in the data set with TNK were “no degradation” and “not directly cleaved”, respectively.
As to D-Tat-L-NA-1 (Bio-D-Tat-L-NA1), in the data set with PSD95PDZ2 [9], the EC50 is 139 nM.
